Results: PubChem BioAssay AID1117286 (Broad Institute, 2014)
Results filed as inconclusive are left out. The source made the active and inactive calls.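 Rule for the calls: active = every test run gives a falling-signal AC50 no higher than twice the top tested dose; inconclusive = runs disagree, or a flat partial drop, or a poor fit; inactive = all runs inactive, including rising signal.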

Molecular target: Endoplasmic reticulum aminopeptidase 2 (Homo sapiens) (UniProt Q6P179)
Experiment: inhibition of recombinant ERAP2 Arg-AMC cleavage – biochemical, plate reader, dry powder samples, selectivity assay for selective ERAP1 modulator project, dose response (AID 1117286)
Conditions: Recombinant ERAP2, Arg-AMC cleavage fluorescence, 1 h

Endoplasmic reticulum aminopeptidase 2 (Homo sapiens), sequence (Q6P179 whole entry, looked up): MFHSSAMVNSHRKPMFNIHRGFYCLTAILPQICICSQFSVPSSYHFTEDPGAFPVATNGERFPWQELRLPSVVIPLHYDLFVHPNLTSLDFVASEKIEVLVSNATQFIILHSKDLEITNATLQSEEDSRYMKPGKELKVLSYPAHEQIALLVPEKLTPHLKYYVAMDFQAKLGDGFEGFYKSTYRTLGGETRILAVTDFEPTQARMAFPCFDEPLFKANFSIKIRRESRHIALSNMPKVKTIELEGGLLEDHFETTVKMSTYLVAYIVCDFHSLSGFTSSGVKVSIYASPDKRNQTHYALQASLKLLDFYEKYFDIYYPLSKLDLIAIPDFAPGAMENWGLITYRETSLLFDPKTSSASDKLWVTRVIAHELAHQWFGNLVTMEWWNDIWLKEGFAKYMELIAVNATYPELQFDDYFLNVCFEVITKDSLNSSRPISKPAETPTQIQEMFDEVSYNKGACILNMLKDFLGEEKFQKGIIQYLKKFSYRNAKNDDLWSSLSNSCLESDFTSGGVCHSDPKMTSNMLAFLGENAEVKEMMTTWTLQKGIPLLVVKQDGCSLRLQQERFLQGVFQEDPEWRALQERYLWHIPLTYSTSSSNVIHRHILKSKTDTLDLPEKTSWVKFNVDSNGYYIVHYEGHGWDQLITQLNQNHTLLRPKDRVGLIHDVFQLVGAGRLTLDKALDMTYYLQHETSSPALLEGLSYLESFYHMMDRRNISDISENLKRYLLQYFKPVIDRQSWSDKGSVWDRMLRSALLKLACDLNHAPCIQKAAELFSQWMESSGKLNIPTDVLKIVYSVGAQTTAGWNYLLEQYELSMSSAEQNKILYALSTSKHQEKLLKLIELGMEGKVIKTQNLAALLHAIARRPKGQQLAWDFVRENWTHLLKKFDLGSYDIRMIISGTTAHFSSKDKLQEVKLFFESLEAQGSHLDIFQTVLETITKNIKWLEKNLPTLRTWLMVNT

SMILES | activity change, negative = inhibition (at 50 µM (top of the series)) | other results
CC(=O)N1CCN(C(=O)C2(NC(=O)NC(C)(C)C)CCCCC2)CC1 | inactive | –
COc1ccc(C(=O)O)cc1S(=O)(=O)Nc1ccccc1N1CCCCC1 | inactive | –
CC(=O)N1CCN(C(=O)C2(NC(=O)Nc3ccc(F)cc3)CCCC2)CC1 | inactive | –
CC(=O)N1CCN(C(=O)C2(NC(=O)Nc3ccccc3C(F)(F)F)CCCCC2)CC1 | inactive | –
CC(=O)N1CCN(C(=O)C2(NC(=O)Nc3ccccc3)CCCC2)CC1 | inactive | –
COc1ccc(C(=O)O)cc1S(=O)(=O)Nc1cc(F)ccc1N1CCCCC1 | inactive | –
O=[N+]([O-])c1cccc(S(=O)(=O)Nc2cc(C(F)(F)F)ccc2N2CCCCC2)c1 | inactive | –
COc1ccc(S(=O)(=O)Nc2cc(C(F)(F)F)ccc2N2CCCCC2)cc1 | inactive | –
CC(=O)N1CCN(C(=O)[C@@H]2CCN2C(=O)Nc2ccc(C)cc2)CC1 | – | AC50: > 100 µM (inactive)
O=S(=O)(Nc1cc(C(F)(F)F)ccc1N1CCCCC1)c1ccccc1 | inactive | –
N#Cc1ccc(S(=O)(=O)Nc2cc(C(F)(F)F)ccc2N2CCCCC2)cc1 | inactive | –
CC(=O)N1CCN(C(=O)C2(NC(=O)Nc3ccc(C(C)C)cc3)CCCCC2)CC1 | inactive | –
O=[N+]([O-])c1ccc(S(=O)(=O)Nc2cc(C(F)(F)F)ccc2N2CCCCC2)c([N+](=O)[O-])c1 | inactive | –
NC(=NCCc1c[nH]c2ccccc12)NS(=O)(=O)c1cc(F)ccc1F | inactive | –
CC(=O)N1CCN(C(=O)C(C)(C)NC(=O)Nc2ccc(C)cc2)CC1 | inactive | –
O=S(=O)(Nc1cc(C(F)(F)F)ccc1N1CCCCC1)c1ccc(Cl)cc1 | inactive | –
Cn1cnc(S(=O)(=O)Nc2cc(C(F)(F)F)ccc2N2CCCCC2)c1 | inactive | –
CC(=O)N1CCN(C(=O)C2CCCN2C(=O)Nc2ccc(C)cc2)CC1 (configuration not stated) | inactive | –
O=S(=O)(Nc1cc(C(F)(F)F)ccc1N1CCCCC1)c1ccc(C(F)(F)F)cc1 | inactive | –
CC(=O)N1CCN(C(=O)CNC(=O)Nc2ccc(C)cc2)CC1 | inactive | –
O=S(=O)(Nc1cc(C(F)(F)F)ccc1N1CCCCC1)c1cc(Cl)cc(Cl)c1 | inactive | –
CC(=O)N1CCN(C(=O)C2(NC(=O)Nc3cccc(F)c3)CCCCC2)CC1 | inactive | –
COc1ccc(C(=O)O)cc1S(=O)(=O)Nc1cc(C(F)(F)F)ccc1N(C)C | inactive | –
COc1ccc(C(=O)Nc2cccc(C(F)(F)F)c2)cc1S(=O)(=O)O | inactive | –
COc1cccc(NC(=O)NC2(C(=O)N3CCN(C(C)=O)CC3)CCCCC2)c1 | inactive | –
COc1ccc(C(=O)Nc2cc(C)ccc2N2CCCCC2)cc1S(=O)(=O)O | inactive | –

SMILES | activity change, negative = inhibition (at 50 µM (top of the series)) | other results
COc1ccc(C(=O)O)cc1S(=O)(=O)Nc1cc(C)ccc1N1CCCCC1 | inactive | –
CC(=O)N1CCN(C(=O)C2(NC(=O)Nc3cccc(C(F)(F)F)c3)CCCCC2)CC1 | inactive | –
CC(=O)N1CCN(C(=O)C2(NC(=O)Nc3ccc(F)cc3)CCCCC2)CC1 | inactive | –
Cc1ccccc1S(=O)(=O)Nc1cc(C(F)(F)F)ccc1N1CCCCC1 | inactive | –
COc1ccc(C(=O)O)cc1S(=O)(=O)Nc1cc(C(F)(F)F)ccc1N1CCOCC1 | inactive | –
COc1ccc(NC(=O)NC2(C(=O)N3CCN(C(C)=O)CC3)CCCCC2)cc1 | inactive | –
O=S(=O)(Nc1cc(C(F)(F)F)ccc1N1CCCCC1)c1ccc(F)cc1 | inactive | –
COc1ccc(C(=O)O)cc1S(=O)(=O)Nc1cc(C(F)(F)F)ccc1N1CCCCC1 | inactive | –
CC(=O)N1CCN(C(=O)C2(NC(=O)Nc3ccc(C(F)(F)F)cc3)CCCC2)CC1 | inactive | –
CC(=O)N1CCN(C(=O)C2(NC(=O)Nc3ccccc3F)CCCCC2)CC1 | inactive | –
CC(=O)N1CCN(C(=O)C2(NC(=O)NCCc3ccccc3)CCCCC2)CC1 | inactive | –
COc1ccc(C2=NN(c3ccc(C(=O)O)cc3)C(c3ccc(OC)c(OC)c3)C2)cc1 (configuration not stated) | – | activity change, negative = inhibition (at 26 µM (top of the series)): inactive
O=S(=O)(Nc1cc(C(F)(F)F)ccc1N1CCCCC1)c1ccc(Br)cc1 | inactive | –
COc1ccc(C(=O)Nc2ccccc2N2CCCCC2)cc1S(=O)(=O)O | inactive | –
COc1ccc(C(=O)Nc2cc(C(F)(F)F)ccc2N2CCCCC2)cc1S(=O)(=O)O | – | AC50: > 100 µM (inactive)
CC(=O)N1CCN(C(=O)C2(NC(=O)Nc3ccccc3)CCCCC2)CC1 | inactive | –
CC(=O)N1CCN(C(=O)C2(NC(=O)Nc3ccc(C(C)C)cc3)CCCC2)CC1 | inactive | –
CC(=O)N1CCN(C(=O)C2(NC(=O)Nc3ccc(C)cc3)CCCCC2)CC1 | inactive | –
Cc1ccc(NC(=O)NC2(C(=O)N3CCOCC3)CCCCC2)cc1 | inactive | –
COc1ccc(C(=O)Nc2cc(C(F)(F)F)ccc2N2CCCC2)cc1S(=O)(=O)O | inactive | –
O=S(=O)(Nc1cc(C(F)(F)F)ccc1N1CCCCC1)c1ccc(-c2ccccc2)cc1 | inactive | –
Cc1ccc(NC(=O)NC2(C(=O)N3CCN(c4ccccc4)CC3)CCCCC2)cc1 | inactive | –
Cc1ccc(NC(=O)NC2(C(=O)N3CCNCC3)CCCCC2)cc1 | inactive | –
COc1ccc(C(=O)Nc2cc(F)ccc2N2CCCCC2)cc1S(=O)(=O)O | inactive | –
CC(=O)N1CCN(C(=O)C2(NC(=O)Nc3ccc(Cl)cc3)CCCCC2)CC1 | inactive | –
O=C(Nc1cc(C(F)(F)F)ccc1N1CCCCC1)c1ccc(S(=O)(=O)O)cc1 | inactive | –
